From patent publication US20100099676A1 (SHIONOGI & CO., LTD., priority 2006, published 2010)

Target: T1, MMP-13 (Homo sapiens, UniProt P45452)
T1 construct: purchased Calbiochem (EMD/MERCK Biosciences)
Test: Enzyme inhibiting activity of MMPs, fluorogenic peptide substrate
Assay type: biochemical
Conditions: compounds not described in the Tables; read-out: inhibiting activity for MMP-13
Procedure: Various human MMPs (MMP-2, MMP-9 and MMP-13) were purchased from Calbiochem (EMD/MERCK Biosciences).
Since the purchased MMP-13 was Proenzyme, the activated one was used, which was incubated at 37° C. for 2 hours after the successive addition of an assay buffer (containing 50 mM Tris-HCl (pH7.6), 0.3 M NaCl, 10 mM CaCl2, 0.005% Brij35) and APMA (final concentration 1 mM) to the enzyme solution.
The enzyme activity of MMPs was measured according to the method described in C. Graham Knight, Frances Willenbrock and Gillian Murphy: A novel coumarin-labelled peptide for sensitive continuous assays of the matrix metalloproteinases: FEBS LETT., 296, (1992), 263-266. As a substrate, MOCAc-Pro-Leu-Gly-Leu-A2Pr(DNP)- Ala-Arg-NH2 (Peptide Institute, Inc. Osaka, Japan) was used, and the following four assays are performed per compound (inhibitor) for measuring the inhibiting activity.
(A) Substrate (synthetic substrate), enzyme (MMPs), inhibitor
(B) Substrate (synthetic substrate), inhibitor
(C) Substrate (synthetic substrate), enzyme (MMPs)
(D) Substrate (synthetic substrate)
In each assay, the fluorescent intensity was measured, and inhibition (%) was calculated by the following equation.
Inhibition (%)=[I−(A−B)/(C−D)]×100
IC50 indicates a concentration at which inhibition (%) is 50%.

IC50 | SMILES
< 10 nM | C[C@@H](NS(=O)(=O)N1CCN(c2ccc(C#Cc3cccc(C(=O)NCc4ccc(Cl)cc4)c3)cc2)CC1)C(=O)O [Compound I-32, (R)-2-(4-{4-[3-(4-chlorobenzylcarbamoyl)-phenylethynyl]-phenyl}-piperazine-1-sulfonylamino)-proponic acid]
10 to 100 nM | C[C@@H](NS(=O)(=O)N1CCN(c2ccc(C#Cc3ccc4cccc(-c5ccc[nH]5)c4c3)cc2)CC1)C(=O)O [Compound I-111, (R)-2-(4-{4-[8-(1H-pyrrol-2-yl)-naphthalen-2-ylethynyl]-phenyl}-piperazine-1-sulfonylamino)-proponic acid]
10 to 100 nM | CCC[C@H](NS(=O)(=O)N1CCN(c2ccc(C#Cc3ccc4cccc(C(C)=O)c4c3)cc2)CC1)C(=O)O [Compound I-110, (S)-2-{4-[4-(8-acetylnaphthalen-2-ylethynyl)-phenyl]-piperazine-1-sulfonylamino}-pentanoic acid]
< 10 nM | Cc1cc(CNC(=O)c2cccc(C#Cc3ccc(N4CCN(S(=O)(=O)N[C@H](C)C(=O)O)CC4)cc3)c2)ccc1F [Compound I-28, (R)-2-(4-{4-[3-(4-fluoro3-methylbenzylcarbamoyl)-phenylethynyl]-phenyl}-piperazine-1-sulfonylamino)-proponic acid]
10 to 100 nM | Cc1cc(CNC(=O)c2cccc(/C=C/c3ccc(N4CCN(S(=O)(=O)N[C@H](C)C(=O)O)CC4)cc3)c2)ccc1F [Compound I-29, (R)-2-[4-(4-{(E)-2-[3-(4-fluoro3-methylbenzylcarbamoyl)-phenyl]-vinyl}-phenyl)-piperazine-1-sulfonylamino]-proponic acid]
10 to 100 nM | C[C@@H](NS(=O)(=O)N1CCN(c2ccc(C#Cc3ccc4cccc(S(N)(=O)=O)c4c3)cc2)CC1)C(=O)O [Compound I-81, (R)-2-{4-[4-(8-sulfamoylnaphthalen-2-ylethynyl)-phenyl]-piperazine-1-sulfonylamino}-proponic acid]
10 to 100 nM | CC(=O)c1cccc2ccc(C#Cc3ccc(N4CCN(S(=O)(=O)N[C@@H](C(=O)O)C(C)C)CC4)cc3)cc12 [Compound I-101, (R)-2-{4-[4-(8-acetylnaphthalen-2-ylethynyl)-phenyl]-piperazine-1-sulfonylamino}-3-methylbutanoic acid]
< 10 nM | C[C@@H](NS(=O)(=O)N1CCN(c2ccc(C#Cc3ccc4cccc(C(=O)NCCF)c4c3)cc2)CC1)C(=O)O [Compound I-56, (R)-2-(4-{4-[8-(2-fluoroethylcarbamoyl)-naphthalen-2-ylethynyl]-phenyl}-piperazine-1-sulfonylamino)-proponic acid]
10 to 100 nM | CCC[C@H](NS(=O)(=O)N1CCN(c2ccc(C#Cc3ccc4cccc(C(N)=O)c4c3)cc2)CC1)C(=O)O [Compound I-92, (S)-2-{4-[4-(8-carbamoylnaphthalen-2-ylethynyl)-phenyl]-piperazine-1-sulfonylamino}-pentanoic acid]
10 to 100 nM | CCC[C@H](NS(=O)(=O)N1CCN(c2ccc(C#Cc3cccc(-c4ncc(C)o4)c3)cc2)CC1)C(=O)O [Compound I-26, (S)-2-(4-{4-[3-(5-methyloxazol-2-yl)-phenylethynyl]-phenyl}-piperazine-1-sulfonylamino)-pentanoic acid]
< 10 nM | C[C@@H](NS(=O)(=O)N1CCN(c2ccc(C#Cc3ccc4cccc(C(=O)NCc5ccccc5)c4c3)cc2)CC1)C(=O)O [Compound I-106, (R)-2-{4-[4-(8-benzylcarbamoylnaphthalen-2-ylethynyl)-phenyl]-piperazine-1-sulfonylamino}-proponic acid]
10 to 100 nM | C[C@@H](NS(=O)(=O)N1CCN(c2ccc(C#Cc3ccc4cccc(S(C)(=O)=O)c4c3)cc2)CC1)C(=O)O [Compound I-83, (R)-2-{4-[4-(8-methanesulfonylnaphthalen-2-ylethynyl)-phenyl]-piperazine-1-sulfonylamino}-proponic acid]
10 to 100 nM | C[C@@H](NS(=O)(=O)N1CCN(c2ccc(C#Cc3ccc4cccc(-c5ncco5)c4c3)cc2)CC1)C(=O)O [Compound I-109, (R)-2-{4-[4-(8-oxazol-2-ylnaphthalen-2-ylethynyl)-phenyl]-piperazine-1-sulfonylamino}-proponic acid]
10 to 100 nM | Cc1cnc(-c2cccc(C#Cc3ccc(N4CCN(S(=O)(=O)N[C@@H](C(=O)O)C(C)C)CC4)cc3)c2)o1 [Compound I-27, (R)-3-methyl-2-(4-{4-[3-(5-methyloxazol-2-yl)-phenylethynyl]-phenyl}-piperazine-1-sulfonylamino)-butanoic acid]
< 10 nM | C[C@@H](NS(=O)(=O)N1CCN(c2ccc(C#Cc3ccc4cccc(C(=O)NC5CC5)c4c3)cc2)CC1)C(=O)O [Compound I-107, (R)-2-{4-[4-(8-cyclopropylcarbamoylnaphthalen-2-ylethynyl)-phenyl]-piperazine-1-sulfonylamino}-proponic acid]
< 10 nM | CCNC(=O)c1cccc2ccc(C#Cc3ccc(N4CCN(S(=O)(=O)N[C@H](C)C(=O)O)CC4)cc3)cc12 [Compound I-104, (R)-2-{4-[4-(8-ethylcarbamoylnaphthalen-2-ylethynyl)-phenyl]-piperazine-1-sulfonylamino}-proponic acid]
10 to 100 nM | COc1cccc2ccc(C#Cc3ccc(N4CCN(S(=O)(=O)N[C@H](C)C(=O)O)CC4)cc3)cc12 [Compound I-99, (R)-2-{4-[4-(8-methoxynaphthalen-2-ylethynyl)-phenyl]-piperazine-1-sulfonylamino}-proponic acid]
10 to 100 nM | C[C@@H](NS(=O)(=O)N1CCN(c2ccc(C#Cc3ccc4cccc(/C=C/Cl)c4c3)cc2)CC1)C(=O)O [Compound I-72, (R)-2-(4-{4-[8-((E)-2-chlorovinyl)-naphthalen-2-ylethynyl]-phenyl}-piperazine-1-sulfonylamino)-proponic acid]
10 to 100 nM | CO/N=C(\C)c1cccc2ccc(C#Cc3ccc(N4CCN(S(=O)(=O)N[C@H](C)C(=O)O)CC4)cc3)cc12 [Compound I-95, (R)-2-{4-[4-(8-{1-[(E)-methoxyimino]-ethyl}-naphthalen-2-ylethynyl)-phenyl]-piperazine-1-sulfonylamino}-proponic acid]
< 10 nM | C[C@@H](NS(=O)(=O)N1CCN(c2ccc(C#Cc3ccc4cccc(/C=C/C(N)=O)c4c3)cc2)CC1)C(=O)O [Compound I-68, (R)-2-(4-{4-[8-((E)-2-carbamoylvinyl)-naphthalen-2-ylethynyl]-phenyl}-piperazine-1-sulfonylamino)-proponic acid]
10 to 100 nM | CC(C)C[C@H](NS(=O)(=O)N1CCN(c2ccc(C#Cc3ccc4cccc(C(N)=O)c4c3)cc2)CC1)C(=O)O [Compound I-55, (S)-2-{4-[4-(8-carbamoylnaphthalen-2-ylethynyl)-phenyl]-piperazine-1-sulfonylamino}-4-methylpentanoic acid]
10 to 100 nM | CC(C)NS(=O)(=O)c1cccc2ccc(C#Cc3ccc(N4CCN(S(=O)(=O)N[C@H](C)C(=O)O)CC4)cc3)cc12 [Compound I-80, (R)-2-{4-[4-(8-isopropylsulfamoylnaphthalen-2-ylethynyl)-phenyl]-piperazine-1-sulfonylamino}-proponic acid]
10 to 100 nM | CCC[C@H](NS(=O)(=O)N1CCN(c2ccc(/C=C/c3ccc4cccc(C(N)=O)c4c3)cc2)CC1)C(=O)O [Compound I-59, (S)-2-(4-{4-[(E)-2-(8-carbamoylnaphthalen-2-yl)-vinyl]-phenyl}-piperazine-1-sulfonylamino)-pentanoic acid]
< 10 nM | C[C@@H](NS(=O)(=O)N1CCN(c2ccc(C#Cc3ccc4cccc(/C=C/C#N)c4c3)cc2)CC1)C(=O)O [Compound I-67, (R)-2-(4-{4-[8-((E)-2-cyanovinyl)-naphthalen-2-ylethynyl]-phenyl}-piperazine-1-sulfonylamino)-proponic acid]
10 to 100 nM | C[C@H](NS(=O)(=O)N1CCN(c2ccc(C#Cc3ccc4cccc(C(N)=O)c4c3)cc2)CC1)C(=O)O [Compound I-105, (S)-2-{4-[4-(8-carbamoylnaphthalen-2-ylethynyl)-phenyl]-piperazine-1-sulfonylamino}-proponic acid]
10 to 100 nM | CC(C)[C@H](NS(=O)(=O)N1CCN(c2ccc(C#Cc3ccc4cccc(C(N)=O)c4c3)cc2)CC1)C(=O)O [Compound I-58, (S)-2-{4-[4-(8-carbamoylnaphthalen-2-ylethynyl)-phenyl]-piperazine-1-sulfonylamino}-3-methylbutanoic acid]
10 to 100 nM | Cc1cnc(-c2cccc3ccc(C#Cc4ccc(N5CCN(S(=O)(=O)N[C@H](C)C(=O)O)CC5)cc4)cc23)o1 [Compound I-108, (R)-2-(4-{4-[8-(5-methyloxazol-2-yl)-naphthalen-2-ylethynyl]-phenyl}-piperazine-1-sulfonylamino)-proponic acid]
< 10 nM | C[C@@H](NS(=O)(=O)N1CCN(c2ccc(C#Cc3ccc4cccc(/C=C/c5nnn[nH]5)c4c3)cc2)CC1)C(=O)O [Compound I-71]

SMILES | IC50
CC(C)CO/N=C1\CCc2ccc(C#Cc3ccc(N4CCN(S(=O)(=O)N[C@H](C)C(=O)O)CC4)cc3)cc21 [Compound I-161, (R)-2-[4-(4-{3-[(E)-isobutoxyimino]indan-5-ylethynyl}-phenyl)-piperazine-1-sulfonylamino]-proponic acid] | 10 to 100 nM
